Read-outs that look alike come from different tables or passages of the source.
Key:
HBV = assay: Anti-viral assay in HepG2.2.15 cells: anti-HBV activity, HBV DNA in culture medium by qPCR; assay type: cell-based; settings: HepG2.2.15 cells, 6 days treatment, HBV DNA by qPCR, read-out: EC50
Experimental: (§1) HepG2.2.15 (the HepG2.2.15 cell line can be produced by transfection of the HepG2 cell line as described in Sells, Chen, and Acs 1987 (Proc. Natl. Acad. Sci. USA 84: 1005-1009), and the HepG2 cell line is available from ATCC® under number HB-8065™)
(§2) HepG2.2.15 cells were plated into 96-well plate in 2% FBS culture medium at the density of 40,000 cells/well and 5,000cells/well for HBV inhibitory activity and cytotoxicity determination, respectively. After incubation at 37° C., 5% CO2 overnight, cells were treated with medium containing compounds for 6 days with medium and compounds refreshed after 3 days of treatment. Each compound was tested in a 1:3 serial dilutions at 8 different concentrations in triplicate. The highest concentration of the compounds was 10 uM or 1 uM for anti-HBV activity assay and 100 uM for cytotoxicity determination.
The change of HBV DNA level induced by the compounds was assessed by quantitative real-time polymerase chain reaction (qPCR). Briefly, the HBV DNA in the culture medium was extracted using QIAamp 96 DNA Blood Kit according to the manual and then quantified by real-time PCR assay using the primers and probe in the table 1 below.
(§3) EC50 and CC50 values are calculated by the […] PRISM software.

[1] = Cytotoxicity determination in HepG2.2.15 cells (CCK-8 assay); assay type: cell-based; settings: human, 6 days treatment, CCK-8, highest concentration 100 uM
Experimental: as §1, §2
Cell viability was determined by CCK-8 assay. After 6 days of compounds treatment, 20 μl CCK-8 reagents were added to each well of cytotoxicity assay plates. Cell plates were incubated at 37° C., 5% CO2 for 2.5 h. The absorbance at 450 nm wavelength and the absorbance at 630 nm wavelength as reference was measured.
as §3

[2] = Hepatitis B virus, HepG2.2.15, 144 h

Compound | EC50 (HBV; [2]) [µM] | CC50 at 6 days [1] [µM] | EC50 (HBV) [µM]
CCOC(=O)C1=C(CN2CCN3C(=S)N(CC(C)(C)C(=O)O)C[C@@H]3C2)NC(c2nccs2)=N[C@@H]1c1ccc(F)c(F)c1C (single isomer, unassigned) [Compound 15A, 3-(7-((6-(3,4-Difluoro-2-methylphenyl)-5-(ethoxycarbonyl)-2-(thiazol-2-yl)-3,6-dihydropyrimidin-4-yl)methyl)-3-thioxohexahydroimidazo[1,5-a]pyrazin-2(3H)-yl)-2,2-dimethylpropanoic acid] | 0.0046 | 25.6 | –
CCOC(=O)C1=C(CN2CCN3C(=CC#N)N(CC(C)(C)C(=O)O)CC3C2)NC(c2nccs2)=N[C@H]1c1cccc(F)c1C (stereo partly drawn) [Compound 7, 3-(3-(Cyanomethylene)-7-(((S)-5-(ethoxycarbonyl)-6-(3-fluoro-2-methylphenyl)-2-(thiazol-2-yl)-3,6-dihydropyrimidin-4-yl)methyl)hexahydroimidazo[1,5-a]pyrazin-2(3H)-yl)-2,2-dimethylpropanoic acid] | 0.72 | 68.7 | –
COC(=O)C1=C(CN2CCN3C(=S)N(CC(C)(C)C(=O)O)CC3C2)NC(c2ncoc2C)=NC1c1cccc(F)c1C (single isomer, unassigned) [Compound 31A, 3-(7-((6-(3-Fluoro-2-methylphenyl)-5-(methoxycarbonyl)-2-(5-methyloxazol-4-yl)-3,6-dihydropyrimidin-4-yl)methyl)-3-thioxohexahydroimidazo[1,5-a]pyrazin-2(3H)-yl)-2,2-dimethylpropanoic acid] | 0.015 | 43.7 | –
CCOC(=O)C1=C(CN2CCN3C(=S)N([C@@H]4CC[C@H](C(=O)O)C4)CC3C2)NC(c2nccs2)=N[C@H]1c1cccc(F)c1C (single isomer, unassigned) [Compound 24A] | – | 15.5 | 0.0391
CCOC(=O)C1=C(CN2CCN3C(=S)N(c4ccc(C(=O)O)cc4)CC3C2)NC(c2nccs2)=N[C@H]1c1cccc(F)c1C (stereo in doubt) [Compound 23, 4-(7-((5-(ethoxycarbonyl)-6-(3-fluoro-2-methylphenyl)-2-(thiazol-2-yl)-3,6-dihydropyrimidin-4-yl)methyl)-3-thioxohexahydroimidazo[1,5-a]pyrazin-2(3H)-yl)benzoic acid] | 0.0046 | 2.6 | –
COC(=O)C1=C(CN2CCN3C(=S)N(CC(C)(C)C(=O)O)CC3C2)NC(c2nccs2)=NC1c1ccc(F)c(F)c1Cl (single isomer, unassigned) [Compound 11A, 3-(7-((6-(2-Chloro-3,4-difluorophenyl)-5-(methoxycarbonyl)-2-(thiazol-2-yl)-3,6-dihydropyrimidin-4-yl)methyl)-3-thioxohexahydroimidazo[1,5-a]pyrazin-2(3H)-yl)-2,2-dimethylpropanoic acid] | 0.0019 | 16.2 | –
CCOC(=O)C1=C(CN2CCN3C(=S)N(CC(C)(C)C(=O)O)C[C@@H]3C2)NC(c2ncoc2C)=N[C@H]1c1ccc(F)cc1Cl (single isomer, unassigned) [Compound 33A, 3-(7-((6-(2-Chloro-4-fluorophenyl)-5-(ethoxycarbonyl)-2-(5-methyloxazol-4-yl)-3,6-dihydropyrimidin-4-yl)methyl)-3-thioxohexahydroimidazo[1,5-a]pyrazin-2(3H)-yl)-2,2-dimethylpropanoic acid] | 0.012 | 37.8 | –
CCOC(=O)C1=C(CN2CCN3C(=S)N(C(C)(C)CC(=O)O)CC3C2)NC(c2nccs2)=N[C@H]1c1cccc(F)c1C (single isomer, unassigned) [Compound 30A] | 0.005 | 8.6 | –
CCOC(=O)C1=C(CN2CCN3C(=S)N(C)C[C@@H]3[C@H]2C(=O)O)NC(c2nccs2)=N[C@H]1c1cccc(F)c1Cl (relative stereo) [Compound 19A, (trans)-7-((6-(2-chloro-3-fluorophenyl)-5-(ethoxycarbonyl)-2-(thiazol-2-yl)-3,6-dihydropyrimidin-4-yl)methyl)-2-methyl-3-thioxooctahydro-imidazo[1,5-a]pyrazine-8-carboxylic acid] | 0.0405 | 89.9 | –
CCOC(=O)C1=C(CN2CCN3C(=S)N(CC(C)(C)C(=O)O)CC3C2)NC(c2nccs2)=NC1c1ccc(F)c(F)c1Cl (single isomer, unassigned) [Compound 14A, 3-(7-((6-(2-Chloro-3,4-difluorophenyl)-5-(ethoxycarbonyl)-2-(thiazol-2-yl)-3,6-dihydropyrimidin-4-yl)methyl)-3-thioxohexahydroimidazo[1,5-a]pyrazin-2(3H)-yl)-2,2-dimethylpropanoic acid] | 0.0012 | 9.6 | –
CCOC(=O)C1=C(CN2CCN3C(=S)N(C[C@@H](C)C(=O)O)C[C@@H]3C2)NC(c2ncoc2C)=NC1c1cccc(F)c1C (single isomer, unassigned) [Compound 32A, 3-(7-((5-(Ethoxycarbonyl)-6-(3-fluoro-2-methylphenyl)-2-(5-methyloxazol-4-yl)-3,6-dihydropyrimidin-4-yl)methyl)-3-thioxohexahydroimidazo[1,5-a]pyrazin-2(3H)-yl)-2-methylpropanoic acid] | 0.0249 | 41 | –
CCOC(=O)C1=C(CN2CCN3C(=S)N(CC(C)(C)C(=O)O)C[C@@H]3C2)NC(c2nccs2)=N[C@H]1c1ccc(F)cc1Cl (single isomer, unassigned) [Compound 21A, 3-(7-((6-(2-chloro-4-fluorophenyl)-5-(ethoxycarbonyl)-2-(thiazol-2-yl)-3,6-dihydropyrimidin-4-yl)methyl)-3-thioxohexahydroimidazo[1,5-a]pyrazin-2(3H)-yl)-2,2-dimethylpropanoic acid] | 0.006 | 15.2 | –
CCOC(=O)C1=C(CN2CCN3C(=S)N(CCC(C)(C)C(=O)O)CC3C2)NC(c2nccs2)=N[C@H]1c1cccc(F)c1C (stereo partly drawn) [Compound 28, 4-(7-(((S)-5-(ethoxycarbonyl)-6-(3-fluoro-2-methylphenyl)-2-(thiazol-2-yl)-3,6-dihydropyrimidin-4-yl)methyl)-3-thioxohexahydroimidazo[1,5-a]pyrazin-2(3H)-yl)-2,2-dimethylbutanoic acid] | 0.0058 | 10.9 | –
COC(=O)C1=C(CN2CCN3C(=S)N(CC(C)(C)C(=O)O)C[C@@H]3C2)NC(c2nccs2)=N[C@H]1c1ccc(F)cc1Br (single isomer, unassigned) [Compound 16B, 3-(7-((6-(2-Bromo-4-fluorophenyl)-5-(methoxycarbonyl)-2-(thiazol-2-yl)-3,6-dihydropyrimidin-4-yl)methyl)-3-thioxohexahydroimidazo[1,5-a]pyrazin-2(3H)-yl)-2,2-dimethylpropanoic acid] | 0.808 | 29.5 | –
COC(=O)C1=C(CN2CCN3C(=S)N(CC(C)(C)C(=O)O)C[C@@H]3C2)NC(c2ncoc2C)=N[C@H]1c1ccc(F)cc1Cl (single isomer, unassigned) [Compound 34A, 3-(7-((6-(2-Chloro-4-fluorophenyl)-5-(methoxycarbonyl)-2-(5-methyloxazol-4-yl)-3,6-dihydropyrimidin-4-yl)methyl)-3-thioxohexahydroimidazo[1,5-a]pyrazin-2(3H)-yl)-2,2-dimethylpropanoic acid] | 0.0079 | 47.4 | –
CCOC(=O)C1=C(CN2CCN3C(=S)N(CC(C)(C)C(=O)O)CC[C@@H]3C2)NC(c2nccs2)=N[C@H]1c1cccc(F)c1C [Compound 6A, 3-((R)-2-(((S)-5-(ethoxycarbonyl)-6-(3-fluoro-2-methylphenyl)-2-(thiazol-2-yl)-3,6-dihydropyrimidin-4-yl)methyl)-6-thioxohexahydro-2H-pyrazino[1,2-c]pyrimidin-7(6H)-yl)-2,2-dimethylpropanoic acid] | 0.0194 | 11.4 | –
[2H][C@@]1(c2cccc(F)c2C)N=C(c2nccs2)NC(CN2CCN3C(=S)N(CC(C)(C)C(=O)O)C[C@@H]3C2)=C1C(=O)OCC (single isomer, unassigned) [Compound 36B, 3-(7-((6-Deutero-5-(ethoxycarbonyl)-6-(3-fluoro-2-methylphenyl)-2-(thiazol-2-yl)-3,6-dihydropyrimidin-4-yl)methyl)-3-thioxohexahydroimidazo[1,5-a]pyrazin-2(3H)-yl)-2,2-dimethylpropanoic acid] | 0.0026 | 23 | –
CCOC(=O)C1=C(CN2CCN3C(=S)N(CC(C)(C)C(=O)O)CC3C2)NC(c2ncoc2C)=NC1c1cccc(F)c1C (single isomer, unassigned) [Compound 26A, 3-(7-((5-(Ethoxycarbonyl)-6-(3-fluoro-2-methylphenyl)-2-(5-methyloxazol-4-yl)-3,6-dihydropyrimidin-4-yl)methyl)-3-thioxohexahydroimidazo[1,5-a]pyrazin-2(3H)-yl)-2,2-dimethylpropanoic acid] | 0.0132 | 26.2 | –

From patent publication US20230165865A1, “HETEROARYLDIHYDROPYRIMIDINE DERIVATIVES AND METHODS OF TREATING HEPATITIS B INFECTIONS” (Janssen Pharmaceutica NV, priority 2018, published 2023)
